According to ChEMBL document CHEMBL1201862, “PubChem BioAssay data set” (2004):
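Growth conditions: 96-well plates. Treatment: test compound, 48 hours, 5 concentrations. Analysis: linear interpolation between bracketing concentrations; unreached endpoints set to highest concentration. GI50 marks 50% less growth.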 Activity calls are given as the source filed them. Rule as the data show it: active = GI50 up to about 1.1 µM and inactive = higher.

Assays:
Assay in all cases: inhibition of tumour cell growth, NCI panel, 48 h
LOX IMVI = test system: LOX IMVI
UACC-62 = test system: UACC-62
Malme-3M = test system: Malme-3M
SF-295 = test system: SF-295
UO-31 = test system: UO-31
TK-10 = test system: TK-10
HL-60 = test system: HL-60
M14 = test system: M14
ACHN = test system: ACHN
A549 = test system: A549
HT-29 = test system: HT-29
OVCAR-4 = test system: OVCAR-4
EKVX = test system: EKVX
NCI-H460 = test system: NCI-H460
OVCAR-5 = test system: OVCAR-5
SK-OV-3 = test system: SK-OV-3
SR = test system: SR

Measured: GI50

COc1ccc(/C(=N\NC(=O)C(N)=O)C(c2ccc(OC)cc2)C2(O)C(=O)Nc3c(Cl)cccc32)cc1 (stereo unspecified)
inactive: LOX IMVI 58.6 µM | UACC-62 > 100 µM | Malme-3M > 100 µM | SF-295 > 100 µM | UO-31 > 100 µM | TK-10 > 100 µM | HL-60 26.9 µM | M14 > 100 µM | ACHN > 100 µM | A549 > 100 µM | HT-29 > 100 µM | OVCAR-4 > 100 µM | EKVX > 100 µM | NCI-H460 > 100 µM | OVCAR-5 > 100 µM

CC1=Nc2ccccc2SC(c2c(Cl)cccc2Cl)C1 (stereo unspecified)
active: LOX IMVI 0.277 µM | HL-60 0.341 µM | HT-29 0.397 µM
inactive: UACC-62 1.25 µM | Malme-3M 1.61 µM | SF-295 1.34 µM | UO-31 1.71 µM | TK-10 2.22 µM | M14 1.52 µM | ACHN 1.71 µM | A549 1.88 µM | OVCAR-4 1.98 µM | EKVX 2.12 µM | SK-OV-3 2.45 µM | NCI-H460 1.14 µM | OVCAR-5 2.39 µM

CC(C)N(C(=O)C12CC3CC(CC(C3)C1)C2)C(C)C
inactive: LOX IMVI > 50 µM | UACC-62 > 50 µM | Malme-3M > 50 µM | SF-295 > 50 µM | UO-31 > 50 µM | TK-10 > 50 µM | HL-60 > 50 µM | M14 > 50 µM | ACHN > 50 µM | A549 > 50 µM | HT-29 > 50 µM | OVCAR-4 > 50 µM | EKVX > 50 µM | SK-OV-3 > 50 µM | NCI-H460 > 50 µM | OVCAR-5 > 50 µM

CC(=O)Oc1cc(OC(C)=O)c(OC(C)=O)c2c1CC1C(=O)C3(CCc4ccccc43)C(=O)C1C2 (stereo unspecified)
inactive: LOX IMVI 6.67 µM | UACC-62 14.5 µM | Malme-3M 7.57 µM | SF-295 4.61 µM | UO-31 22.1 µM | TK-10 17.4 µM | HL-60 4.53 µM | M14 > 100 µM | ACHN 13.4 µM | A549 19.5 µM | HT-29 20.7 µM | OVCAR-4 11.7 µM | EKVX 20 µM | SK-OV-3 32.1 µM | NCI-H460 13.9 µM

Cc1ccc(CC(C)N)cc1 (stereo unspecified)
inactive: LOX IMVI > 100 µM | UACC-62 > 100 µM | Malme-3M > 100 µM | SF-295 > 100 µM | UO-31 > 100 µM | TK-10 > 100 µM | HL-60 > 100 µM | M14 > 100 µM | ACHN > 100 µM | A549 > 100 µM | HT-29 > 100 µM | OVCAR-4 > 100 µM | EKVX > 100 µM | SK-OV-3 > 100 µM | NCI-H460 > 100 µM | OVCAR-5 > 100 µM

COc1cc(C(C#N)NNC(=O)Cc2ccccc2)cc(OC)c1OC (stereo unspecified)
inactive: LOX IMVI > 100 µM | UACC-62 > 100 µM | Malme-3M > 100 µM | SF-295 > 100 µM | UO-31 72.3 µM | TK-10 > 100 µM | HL-60 > 100 µM | M14 > 100 µM | ACHN > 100 µM | A549 > 100 µM | HT-29 > 100 µM | OVCAR-4 > 100 µM | SR > 100 µM | SK-OV-3 > 100 µM | NCI-H460 > 100 µM | OVCAR-5 > 100 µM

CN(Cc1ccccc1)C1(N(C)Cc2ccccc2)CC1
inactive: LOX IMVI > 100 µM | UACC-62 > 100 µM | Malme-3M > 100 µM | SF-295 > 100 µM | UO-31 > 100 µM | TK-10 > 100 µM | HL-60 > 100 µM | M14 > 100 µM | ACHN > 100 µM | A549 > 100 µM | HT-29 > 100 µM | OVCAR-4 > 100 µM | EKVX > 100 µM | SK-OV-3 > 100 µM | NCI-H460 > 100 µM | OVCAR-5 > 100 µM

COC12C=CC(CC1)c1c(O)ccc(O)c12 (stereo unspecified)
inactive: UACC-62 27.3 µM | Malme-3M > 51.5 µM | SF-295 > 90.8 µM | UO-31 > 80.7 µM | TK-10 > 49.7 µM | HL-60 2.39 µM | M14 57.7 µM | ACHN 39.3 µM | A549 > 92.5 µM | HT-29 64.9 µM | OVCAR-4 19.6 µM | EKVX > 66.2 µM | SR 5.6 µM | SK-OV-3 > 100 µM | NCI-H460 52.8 µM | OVCAR-5 > 100 µM
